Source: PubChem BioAssay (NCI)
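Assay format: 96-well plates, 48-hour exposure. TGI is the concentration that stops growth completely.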

Legend:
Assay in all cases: inhibition of tumour cell growth, NCI panel, 48 h
HCT-15 colon = test system: HCT-15 colon
UO-31 renal = test system: UO-31 renal
NCI/ADR-RES ovarian = test system: NCI/ADR-RES ovarian
CAKI-1 renal = test system: CAKI-1 renal
RPMI-8226 leukemia = test system: RPMI-8226 leukemia
MDA-MB-231 breast = test system: MDA-MB-231 breast
SK-MEL-5 melanoma = test system: SK-MEL-5 melanoma
SNB-75 CNS = test system: SNB-75 CNS
MDA-N = test system: MDA-N
SN12C renal = test system: SN12C renal
SK-MEL-28 melanoma = test system: SK-MEL-28 melanoma
TK-10 renal = test system: TK-10 renal
M14 melanoma = test system: M14 melanoma
SF-295 CNS = test system: SF-295 CNS
SNB-19 CNS = test system: SNB-19 CNS
CCRF-CEM leukemia = test system: CCRF-CEM leukemia
HT29 colon = test system: HT29 colon
COLO 205 colon = test system: COLO 205 colon
SW-620 colon = test system: SW-620 colon
NCI-H23 lung = test system: NCI-H23 lung
NCI-H226 lung = test system: NCI-H226 lung
NCI-H522 lung = test system: NCI-H522 lung
K-562 leukemia = test system: K-562 leukemia
UACC-62 melanoma = test system: UACC-62 melanoma
KM12 colon = test system: KM12 colon
BT-549 breast = test system: BT-549 breast
MOLT-4 leukemia = test system: MOLT-4 leukemia
MDA-MB-435 = test system: MDA-MB-435
DU-145 prostate = test system: DU-145 prostate
EKVX NSCLC = test system: EKVX NSCLC
A549 NSCLC = test system: A549 NSCLC
OVCAR-3 ovarian = test system: OVCAR-3 ovarian
SK-MEL-2 melanoma = test system: SK-MEL-2 melanoma
ACHN renal = test system: ACHN renal
OVCAR-8 ovarian = test system: OVCAR-8 ovarian
A498 renal = test system: A498 renal
HS 578T breast = test system: HS 578T breast
IGROV1 ovarian = test system: IGROV1 ovarian
RXF 393 renal = test system: RXF 393 renal
T-47D breast = test system: T-47D breast
OVCAR-5 ovarian = test system: OVCAR-5 ovarian
PC-3 prostate = test system: PC-3 prostate
HOP-92 NSCLC = test system: HOP-92 NSCLC
MALME-3M melanoma = test system: MALME-3M melanoma
SK-OV-3 ovarian = test system: SK-OV-3 ovarian
786-0 renal = test system: 786-0 renal
MCF7 breast = test system: MCF7 breast
HOP-62 NSCLC = test system: HOP-62 NSCLC
HCT-116 colon = test system: HCT-116 colon
SF-268 CNS = test system: SF-268 CNS
U251 CNS = test system: U251 CNS
HL-60(TB) leukemia = test system: HL-60(TB) leukemia
OVCAR-4 ovarian = test system: OVCAR-4 ovarian
LOX IMVI melanoma = test system: LOX IMVI melanoma
SR leukemia = test system: SR leukemia
UACC-257 melanoma = test system: UACC-257 melanoma
HCC-2998 colon = test system: HCC-2998 colon
NCI-H460 lung = test system: NCI-H460 lung
SF-539 CNS = test system: SF-539 CNS

Clc1ccc2c(NCCNC3CCCCC3)ccnc2c1
TGI (HCT-15 colon): 20.4 µM
TGI (UO-31 renal): 11.2 µM
TGI (NCI/ADR-RES ovarian): 33.7 µM
TGI (CAKI-1 renal): 24.3 µM
TGI (RPMI-8226 leukemia): 17 µM
TGI (MDA-MB-231 breast): 23.8 µM
TGI (SK-MEL-5 melanoma): 3.16 µM
TGI (SNB-75 CNS): 23.4 µM
TGI (MDA-N): 5.42 µM
TGI (SN12C renal): 33.8 µM
TGI (SK-MEL-28 melanoma): 3.62 µM
TGI (TK-10 renal): 7.15 µM
TGI (M14 melanoma): 3.41 µM
TGI (SF-295 CNS): 10.3 µM
TGI (SNB-19 CNS): 35.5 µM
TGI (CCRF-CEM leukemia): 9.77 µM
TGI (HT29 colon): 14.8 µM
TGI (COLO 205 colon): 2.79 µM
TGI (SW-620 colon): 29.7 µM
TGI (NCI-H23 lung): 32.2 µM
TGI (NCI-H226 lung): 24.8 µM
TGI (NCI-H522 lung): 7.46 µM
TGI (K-562 leukemia): 6.13 µM
TGI (UACC-62 melanoma): 15.8 µM
TGI (KM12 colon): 31 µM
TGI (BT-549 breast): 23.3 µM
TGI (MOLT-4 leukemia): 18.6 µM
TGI (MDA-MB-435): 9.92 µM
TGI (DU-145 prostate): 36.7 µM
TGI (EKVX NSCLC): 15.7 µM
TGI (A549 NSCLC): 31.2 µM
TGI (OVCAR-3 ovarian): 37.5 µM
TGI (SK-MEL-2 melanoma): 11 µM
TGI (ACHN renal): 25.3 µM
TGI (OVCAR-8 ovarian): 31.9 µM
TGI (A498 renal): 5.85 µM
TGI (HS 578T breast): 8.15 µM
TGI (IGROV1 ovarian): 27.8 µM
TGI (RXF 393 renal): 27.1 µM
TGI (T-47D breast): 64.6 µM
TGI (OVCAR-5 ovarian): 30.5 µM
TGI (PC-3 prostate): 33.9 µM
TGI (HOP-92 NSCLC): 22.5 µM
TGI (MALME-3M melanoma): 3.64 µM
TGI (SK-OV-3 ovarian): 37.8 µM
TGI (786-0 renal): 20.9 µM
TGI (MCF7 breast): 15.9 µM
TGI (HOP-62 NSCLC): 27.4 µM
TGI (HCT-116 colon): 21.1 µM
TGI (SF-268 CNS): 22.8 µM
TGI (U251 CNS): 17.7 µM
TGI (HL-60(TB) leukemia): 6.63 µM
TGI (OVCAR-4 ovarian): 46.5 µM
TGI (LOX IMVI melanoma): 8.53 µM

COc1c2c(cc3occ(-c4ccc(CC=C(C)C)cc4)c(=O)c13)OC(C)(C)C=C2
TGI (SR leukemia): > 100 µM
TGI (HCT-15 colon): > 100 µM
TGI (UO-31 renal): > 100 µM
TGI (NCI/ADR-RES ovarian): > 100 µM
TGI (CAKI-1 renal): > 100 µM
TGI (RPMI-8226 leukemia): 50.3 µM
TGI (MDA-MB-231 breast): > 100 µM
TGI (SK-MEL-5 melanoma): 48.9 µM
TGI (SNB-75 CNS): > 100 µM
TGI (MDA-N): > 100 µM
TGI (SN12C renal): > 100 µM
TGI (SK-MEL-28 melanoma): > 100 µM
TGI (TK-10 renal): > 100 µM
TGI (M14 melanoma): > 100 µM
TGI (SF-295 CNS): > 100 µM
TGI (SNB-19 CNS): > 100 µM
TGI (CCRF-CEM leukemia): > 100 µM
TGI (UACC-257 melanoma): > 100 µM
TGI (HT29 colon): > 100 µM
TGI (COLO 205 colon): > 100 µM
TGI (SW-620 colon): > 100 µM
TGI (NCI-H23 lung): > 100 µM
TGI (NCI-H226 lung): > 100 µM
TGI (NCI-H522 lung): > 100 µM
TGI (K-562 leukemia): > 100 µM
TGI (UACC-62 melanoma): > 100 µM
TGI (KM12 colon): > 100 µM
TGI (BT-549 breast): > 100 µM
TGI (MOLT-4 leukemia): 52.1 µM
TGI (MDA-MB-435): > 100 µM
TGI (DU-145 prostate): > 100 µM
TGI (EKVX NSCLC): > 100 µM
TGI (A549 NSCLC): > 100 µM
TGI (OVCAR-3 ovarian): > 100 µM
TGI (SK-MEL-2 melanoma): 62.7 µM
TGI (ACHN renal): > 100 µM
TGI (OVCAR-8 ovarian): > 100 µM
TGI (HS 578T breast): > 100 µM
TGI (IGROV1 ovarian): > 100 µM
TGI (RXF 393 renal): > 100 µM
TGI (HCC-2998 colon): > 100 µM
TGI (T-47D breast): > 100 µM
TGI (OVCAR-5 ovarian): > 100 µM
TGI (PC-3 prostate): > 100 µM
TGI (MALME-3M melanoma): > 100 µM
TGI (SK-OV-3 ovarian): > 100 µM
TGI (786-0 renal): > 100 µM
TGI (MCF7 breast): > 100 µM
TGI (HOP-62 NSCLC): > 100 µM
TGI (HCT-116 colon): > 100 µM
TGI (SF-268 CNS): > 100 µM
TGI (U251 CNS): > 100 µM
TGI (HL-60(TB) leukemia): 46.4 µM
TGI (LOX IMVI melanoma): > 100 µM

CC(=O)OC1CC(OC2C(O)CC(OC3C(O)CC(OC4CCC5(C)C(CCC6C5CCC5(C)C(C7=CC(=O)OC7)C(O)CC65O)C4)OC3C)OC2C)OC(C)C1OC1OC(CO)C(O)C(O)C1O (centres undefined)
TGI (HCT-15 colon): 1.16 µM
TGI (UO-31 renal): 1.46 µM
TGI (NCI/ADR-RES ovarian): 0.755 µM
TGI (CAKI-1 renal): 0.461 µM
TGI (NCI-H460 lung): 0.491 µM
TGI (RPMI-8226 leukemia): 5.7 µM
TGI (MDA-MB-231 breast): 6.42 µM
TGI (SK-MEL-5 melanoma): 1.06 µM
TGI (SNB-75 CNS): 2.97 µM
TGI (MDA-N): 1.77 µM
TGI (SN12C renal): 1.32 µM
TGI (SK-MEL-28 melanoma): 3.61 µM
TGI (TK-10 renal): 2.14 µM
TGI (M14 melanoma): 2.31 µM
TGI (SF-295 CNS): 1.43 µM
TGI (SNB-19 CNS): 2.19 µM
TGI (CCRF-CEM leukemia): > 100 µM
TGI (UACC-257 melanoma): 1.88 µM
TGI (HT29 colon): 1.76 µM
TGI (COLO 205 colon): 2.13 µM
TGI (SW-620 colon): 1.45 µM
TGI (NCI-H23 lung): 0.424 µM
TGI (NCI-H226 lung): 2.66 µM
TGI (NCI-H522 lung): 1.2 µM
TGI (SF-539 CNS): 0.421 µM
TGI (K-562 leukemia): > 100 µM
TGI (UACC-62 melanoma): 1.98 µM
TGI (KM12 colon): 1.94 µM
TGI (BT-549 breast): 1.26 µM
TGI (MOLT-4 leukemia): > 100 µM
TGI (MDA-MB-435): 2.08 µM
TGI (DU-145 prostate): 0.684 µM
TGI (EKVX NSCLC): 0.803 µM
TGI (A549 NSCLC): 0.244 µM
TGI (OVCAR-3 ovarian): 1.24 µM
TGI (SK-MEL-2 melanoma): 2.16 µM
TGI (ACHN renal): 0.942 µM
TGI (OVCAR-8 ovarian): 1.56 µM
TGI (A498 renal): 2.13 µM
TGI (HS 578T breast): > 100 µM
TGI (IGROV1 ovarian): 3.58 µM
TGI (HCC-2998 colon): 4.09 µM
TGI (T-47D breast): 3.32 µM
TGI (OVCAR-5 ovarian): 1.72 µM
TGI (PC-3 prostate): 1.55 µM
TGI (HOP-92 NSCLC): 3.17 µM
TGI (MALME-3M melanoma): 1.85 µM
TGI (SK-OV-3 ovarian): 2.1 µM
TGI (786-0 renal): 0.943 µM
TGI (MCF7 breast): 15.8 µM
TGI (HOP-62 NSCLC): 0.483 µM
TGI (HCT-116 colon): 0.91 µM
TGI (SF-268 CNS): 2.48 µM
TGI (U251 CNS): 1.45 µM
TGI (HL-60(TB) leukemia): 0.577 µM
TGI (LOX IMVI melanoma): 1.14 µM
